We go through three compounds from article PMC6535779, “A Specific, Glycomimetic Langerin Ligand for Human Langerhans Cell Targeting” (ACS Central Science, 2019).

Where two headings read alike, the source gives them in different places.

What is called Ki is the equilibrium dissociation constant of an inhibitor or competing ligand from its target. As a reminder, the Kd is a measure of binding affinity in units of concentration.

Assay [1] concerns the target T1, Langerin extracellular domain (ECD) (Homo sapiens, UniProt Q9UJ71).
T1 construct: the trimeric Langerin extracellular domain (ECD) was expressed insolubly in E; made in house
Description: 19F R2-filtered NMR reporter displacement assay with Langerin. Type of assay: binding. The following applies: for Ki: 19F R2-filtered NMR, 0.1 mM reporter ligand 24, pH 7.8, 25 °C. The procedure:
(§1) Receptor Expression and Purification
General remarks. Codon-optimized genes for the expression of Langerin and DC-SIGN in E. coli were purchased from GenScript and Life Technologies, respectively. All growth media or chemicals used for receptor expression and purification were purchased from Carl Roth if not stated otherwise.
Langerin extracellular domain. Expression and purification were conducted as previously published14. Briefly, the trimeric Langerin extracellular domain (ECD) was expressed insolubly in E. coli BL21* (DE3) (Invitrogen). Following enzymatic cell lysis, inclusion bodies were harvested and subsequently solubilized. The sample was centrifuged and the Langerin ECD was refolded overnight via rapid dilution. Next, the sample was dialyzed overnight, centrifuged and purified via mannan-agarose affinity chromatography (Sigma Aldrich). For 19F R2-filtered NMR and lipid-enzyme-linked lectin assay (Lipid-ELLA) experiments, the buffer was exchanged to 25 mM Tris with 150 mM NaCl and 5 mM CaCl2 at pH 7.8 using 7 kDa size-exclusion desalting columns (Thermo Scientific). For […]
D2O, 150 mM NaCl and 5 mM CaCl2 at pH 7. The concentration of Langerin ECD was determined via UV spectroscopy (A280, 0.1% = 2.45). Purity and monodispersity of Langerin ECD samples were analyzed via SDS PAGE and DLS. […]
General remarks. 19F R2-filtered NMR experiments were conducted on a PremiumCompact 600 MHz spectrometer (Agilent). Spectra were processed in MestReNova and data analysis was performed with OriginPro 13, 15. Experiments with the Langerin ECD were performed at a receptor concentration of 50 μM in 25 mM Tris with 10% D2O, 150 mM NaCl and 5 mM CaCl2 at pH 7.8 and 25° C. […]
10% D2O, 150 mM NaCl and 5 mM CaCl2 at pH 7.0 and 25°C. TFA served as an internal reference at a concentration of 50 μM. Apparent relaxation rates R2,obs for the reporter ligand were determined using the CPMG pulse sequence as previously published3-5. […]
(§2) KI determination. KI values were determined as previously published for Langerin3. Briefly, titration experiments were conducted at a concentration of 0.1 mM of reporter ligand 24 at five competitor concentrations [I]T. Samples were prepared via serial dilution. For the acids GlcNS, GlcNAc-6-OS and GlcNS-6-OS the pH values were monitored and adjusted to 7.8 if necessary.
(§3) General remarks. 15N HSQC NMR experiments were conducted on an Ascend 700 MHz spectrometer (Bruker)16. Spectra were processed in NMRPipe17. Data analysis was performed using CCPN Analysis, MatLab and OriginPro15, 18-19. Experiments with the Langerin CRD were performed at a receptor concentration of 100 μM in 25 mM HEPES with 10% D 2O, 150 mM NaCl and 5 mM CaCl2 at pH 7.8 and 25° C. DSS-d6 served as an internal reference at a concentration of 100 μM. Spectra were referenced via the internal spectrometer reference. Spectra were acquired with 128 increments and 32 scans per increments for 150 μl samples in 3 mm sample tubes. The relaxation delay d1 was set to 1.4 s and the acquisition time tacq was set to 100 ms. The W5 Watergate pulse sequence was used for solvent suppression20. The used resonance assignment for the Langerin CRD has been published […]
(§4) KD determination. KD values were determined in titration experiments at six ligand concentrations [L]T. Samples were prepared via serial dilution. Chemical shift perturbations CSPs for Langerin CRD resonances in the fast or fast-to-intermediate exchange regime observed upon titration with ligand were calculated via Equation 121.

In assay [2] the target is T2, Langerin CRD (Homo sapiens, UniProt Q9UJ71).
T2 construct: made in house
The assay can be described thus: 15N HSQC NMR titration, KD determination. Type of assay: binding. The procedure:
as §1
General remarks. Codon-optimized genes for the expression of Langerin and DC-SIGN in E. coli were purchased from GenScript and Life Technologies, respectively. All growth media or chemicals used for receptor expression and purification were purchased from Carl Roth if not stated otherwise. […]
Langerin and DC-SIGN carbohydrate recognition domain. Expression and purification were conducted as previously published14. Briefly, the monomeric 15N-labeled Langerin and DC-SIGN carbohydrate recognition domains (CRDs) were expressed insolubly in E. coli BL21* (DE3) (Invitrogen). Following enzymatic cell lysis, inclusion bodies were harvested and subsequently solubilized. The sample was centrifuged and the Langerin and DC-SIGN CRDs were refolded overnight via rapid dilution. Next, the sample was dialyzed overnight, centrifuged and purified via StrepTactin affinity chromatography (Iba). After an additional dialysis step overnight, the sample was centrifuged and the buffer was exchanged to 25 mM HEPES with 150 mM NaCl at pH 7.0 using 7 kDa size-exclusion desalting columns (Thermo Scientific) for 19F R2-filtered and 15N HSQC NMR experiments. The concentration of Langerin and DC -SIGN CRDs was determined via UV spectroscopy (A280, 0.1% = 3.19 and A280, 0.1% = 2.98). Purity and monodispersity of Langerin and DC - SIGN CRD samples were analyzed via SDS PAGE and DLS. […]
as §2, §3, §4
A standard deviation σ of 0.02 ppm was previously determined for the measurement of chemical shifts in 15N HSQC NMR experiments with the Langerin CRD1. Accordingly, only assigned resonances that […]
for the determination of KD values via Equation 2 in a global two parameter fit21. Standard errors were derived directly from the fitting procedures.
Δv0.5 larger than 10 Hz upon titration in either the 1H or the 15N dimension were not considered for the determination of KD values. CSPmax represents the CSP value observed upon saturation of the binding […]

Setting [3] is: calculated utilizing the KI value determined for 21.
The mark [4] stands for this setting: CSPs of fast-exchanging resonances, read-out: KD, Langerin (KD,fast).
[5] abbreviates: from integrals V of resonances in slow exchange, read-out: KD, Langerin (KD,slow).

T2 sequence (Q9UJ71 202-320 limits assumed): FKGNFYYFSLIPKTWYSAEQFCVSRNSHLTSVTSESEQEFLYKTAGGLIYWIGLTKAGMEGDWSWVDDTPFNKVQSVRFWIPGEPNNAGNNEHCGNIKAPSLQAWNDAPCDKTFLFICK
T1 sequence (Q9UJ71 65-328 limits assumed): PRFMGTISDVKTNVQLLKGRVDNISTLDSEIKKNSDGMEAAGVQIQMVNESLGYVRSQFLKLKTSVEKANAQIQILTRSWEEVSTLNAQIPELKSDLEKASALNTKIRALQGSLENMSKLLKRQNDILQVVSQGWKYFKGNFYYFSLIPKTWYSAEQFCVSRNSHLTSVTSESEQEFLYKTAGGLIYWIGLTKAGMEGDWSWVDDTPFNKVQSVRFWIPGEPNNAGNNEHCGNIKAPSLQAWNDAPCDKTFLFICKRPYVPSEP

For the compound `CC(=O)NCCO[C@@H]1O[C@H](CO)[C@@H](O)[C@H](O)[C@H]1NS(=O)(=O)c1ccc(C)cc1` [compound 16], in assay [1], the Ki is 240 ± 30 µM. Further, the “Relative potency, Langerin” value in assay [1] (setting [3]) is given as 42. Also, the “affinity increase over Man-based reference molecule 21” value in assay [1] (from KI values, Langerin, b47 words it as over natural glycans) was 42 fold. Also, the Kd in assay [2] (setting [4]) is 230 ± 70 µM; in assay [2] (setting [5]) it was 300 ± 100 µM.
In the case of `Cc1ccc(S(=O)(=O)N[C@H]2C(O)O[C@H](CO)[C@@H](O)[C@@H]2O)cc1` (some centres unmarked) [compound 2], in assay [1], affinity was put at a Ki of 320 ± 50 µM. Moreover, the figures for the “Relative potency, Langerin” value in assay [1] (setting [3]) and in assay [1] (calculated utilizing the KI value determined for GlcNAc) were 31 and 13, respectively. Besides, the “affinity increase over GlcNAc” value in assay [1] (from KI values, Langerin) came out at 13 fold. The Kd in assay [2] (setting [4]) is 460 ± 40 µM; in assay [2] (setting [5]) it was 500 ± 200 µM.
`CC(=O)NCCO[C@H]1O[C@H](CO)[C@@H](O)[C@H](O)[C@@H]1O` [compound 21] registered a Ki in assay [1] of 10000 ± 1000 µM. The “Relative potency, Langerin” value in assay [1] (setting [3]) is recorded as 1.0. The dissociation constant (Kd) in assay [2] (setting [4]) was 12000 ± 1000 µM.
